Measured values reported in patent US20100311700A1, “Transdermal preparation for external use containing nonsterioidal antiinflammatory/analgesic agent” (Hisamitsu Pharmaceutical Co., Inc., priority 2005, published 2010).

Tests used:
Format in all cases: in vivo
Balb/c mice [1] = test: Murine auricular photo-irradiation test (ear edema after 2% ketoprofen + UVA); settings: UVA 40 J/cm^2, toward the KP group
Description: The following experiments were carried out by referring to the method of Gerberick et al. (Food Chem. Toxicol., 27, 813-819 (1989) and modifying a part of it. Namely, as a test animal, Balb/c mice (female, 9-11 weeks old) were used. Each test substance {4-tert-butyl-4′-methoxydibenzoylmethane (BM-DBM), 2-ethylhexyl dimethoxybenzylidenedioxoimidazolidinepropionate (DB-D1H), terephthalylidene-3,3′-dicamphor-10,10′-disulfonic acid (TCDCS) and n-hexyl 2-(4-dimethylamino-2-hydroxybenzoyl)benzoate (DHB-BH)} which were dissolved in ethanol and 2% ketoprofen (KP) were applied on the auricle, and followed by WA irradiation at 40 J/cm^2.
The ear thickness was measured 24 hours after the WA irradiation, and an increase from the ear thickness prior to the start of the test was calculated.

Balb/c mice [2] = test: Murine auricular lymph node test 2 (modified LLNA, lymph node weight after ketoprofen + UVA); settings: test substance 2% with KP 2%; UVA 20 J/cm^2, three days; lymph node removed after 5 days; toward the KP group
Description: Detection of a skin symptom due to an immunological mechanism resulting from KP upon photo-irradiation was carried out by other modified method of the above LLNA. Namely, as a test animal, Balb/c mice (female, 8-12 weeks old) were used. A test substance of 2% concentration and KP of 2% concentration which were dissolved in acetone—olive oil (4:1, v/v) or acetone—olive oil—physiological saline (3:3:1, v/v) were applied on the back of the pinna, and followed by UVA irradiation at 20 J/cm^2. This treatment inducing sensitization was carried out for three days consecutively. After 5 days from the start of the sensitization, the murine auricular lymph node was removed, and pooled in PBS. Then, PBS attached to the removed lymph node was sufficiently wiped up, and weighed. […]

Balb/c mice [3] = test: Murine local lymph node test 1 (modified LLNA, 3H-TdR uptake after ketoprofen + UVA); settings: UVA 20 J/cm^2, 3 days, toward the KP group
Description: Detection of a skin symptom due to an immunological mechanism resulting from KP upon photo-irradiation was carried out by a modified method of Murine Local Lymph Node Assay (LLNA) proposed by The Interagency Coordinating Committee on the Validation of Alternative Methods (ICCVAM). Namely, as a test animal, Balb/c mice (female, 8-12 weeks old) were used. The test substance {4-tert-butyl-4′-methoxydibenzoylmethane (BM-DBM)} and 2% ketoprofen (KP) which were dissolved in acetone—olive oil (4:1, v/v) were applied on the back of the pinna, and followed by UVA irradiation at 20 J/cm^2. This treatment inducing sensitization was carried out for 3 days consecutively. After 5 days from the start of sensitization, a ^3H-methylthymidine (3H-TdR)/PBS solution of 20μCi per mouse was injected in the tail vein, and after 5 hours, the auricular lymph node was removed. The removed lymph node was made into a single lymph cell suspension by a cell strainer, then washed two times with PBS, and let it stand in 5% trichloroacetic acid (TCA) solution at 4° C. overnight to precipitate DNA. The precipitate was suspended in 1 ml of 5% TCA solution and a radiation activity was measured by a liquid scintillation counter.

[4] = test system: Hartley strain guinea pig; test: Photo-sensitization test using guinea pigs (modified Adjuvant and Strip method); settings: 2% test substance with 2% KP in ethanol, UVA 10 J/cm^2, toward the KP group
Description: An effect exerted by the UV blocker to skin symptoms due to an immunological mechanism resulting from KP upon photo-irradiation was further examined by a modified method of the Adjuvant and Strip method of Sato et al. (Nishinihon Hifuka, 42, 831-837 (1980)) using guinea pigs. That is, the cervical back of a white female Hartley strain guinea pig (eight guinea pigs per group) was depilated, and the adjuvant was administered to four corners of 2×2 cm, and then, 2% ketoprofen (KP) solution, or 2% KP and 2% test substance {4-tert-butyl-4′-methoxydibenzoylmethane (BM-DBM)} solution, which were dissolved in ethanol, were applied on the above parts of 2×2 cm under an open condition, and after 1 hour, UVA (10 J/cm^2) was irradiated. This treatment of sensitization induction was carried out successively for 5 days. […] Skin reactions after 24 hours and 48 hours from the irradiation were evaluated according to the above standard of Sato et al. The suppression effect by BM-DBM to the skin symptoms due to the immunological mechanism resulting from KP upon photo-irradiation was evaluated by the erythema/edema suppression ratio (%) toward the KP group.

[5] = test substance conc. 0.5% in ethanol with 2% ketoprofen on the auricle, ear thickness 24 hours after irradiation

| Compound | Ear edema suppression ratio (%) (Balb/c mice [1]; [5]) | Suppression ratio (%) in the weight increase of the auricular lymph node (Balb/c mice [2]) | further results |
| --- | --- | --- | --- |
| 2-ethylhexyl dimethoxybenzylidenedioxoimidazolidinepropionate [DB-DIH] | 34% | – | – |
| O=C(c1ccc(O)cc1O)c1ccc(O)cc1O [2,2′,4,4′-Tetrahydroxybenzophenone, reference compound] | – | −32% | – |
| COc1ccc(O)c(-n2nc3ccccc3n2)c1 [2-(2′-Hydroxy-5′-methoxyphenyl)-bezotriazole] | – | 4% | – |
| CCCCC(CC)COC(=O)C=Cc1ccc(OC)cc1 (centres unmarked) [2-Ethylhexyl 4-methoxycinnamate] | – | 20% | – |
| Nc1ccc(C(=O)O)cc1 [4-Aminobenzoic acid, reference compound] | – | −39% | – |
| COc1ccc(C(=O)CC(=O)c2ccc(C(C)(C)C)cc2)cc1 [BM-DBM, 4-tert-butyl-4′-methoxydibenzoylmethane] | 98% | 88% | ^3H-TdR uptake suppression ratio(%) (Balb/c mice [3]; BM-DBM concentration 0.06% with 2% ketoprofen in acetone-olive oil (4:1), auricular lymph node): 30%; ^3H-TdR uptake suppression ratio(%) (Balb/c mice [3]; BM-DBM concentration 0.13% with 2% ketoprofen): 51%; ^3H-TdR uptake suppression ratio(%) (Balb/c mice [3]; BM-DBM concentration 0.25% with 2% ketoprofen): 24%; ^3H-TdR uptake suppression ratio(%) (Balb/c mice [3]; BM-DBM concentration 0.50% with 2% ketoprofen): 94%; ^3H-TdR uptake suppression ratio(%) (Balb/c mice [3]; BM-DBM concentration 1.00% with 2% ketoprofen): 99%; Ear edema suppression ratio (%) (Balb/c mice [1]; test substance conc. 0.1% with 2% ketoprofen, 24 hours after irradiation): 41%; Ear edema suppression ratio (%) (Balb/c mice [1]; test substance conc. 0.3% with 2% ketoprofen, 24 hours after irradiation): 81%; Erythema/Edema suppression ratio (%) After 24 hrs ([4]; skin reaction 24 hours after photo-induction irradiation): 69%; Erythema/Edema suppression ratio (%) After 48 hrs ([4]; skin reaction 48 hours after photo-induction irradiation): 74% |
| CCCCCCOC(=O)c1ccccc1C(=O)c1ccc(N(C)C)cc1O [DHB-BH, n-hexyl 2-(4-dimethylamino-2-hydroxybenzoyl)benzoate] | 84% | – | – |
| CCOC(=O)c1ccc(N)cc1 [Ethyl 4-aminobenzoate] | – | 43% | – |
| O=C(OCCO)c1ccccc1O [Ethylene glycol monosalicylate, reference compound] | – | −68% | – |
| COc1ccc(C(=O)c2ccccc2)c(O)c1 [Oxybenzone] | – | 56% | – |
| O=C(Oc1ccccc1)c1ccccc1O [Phenyl salicylate, reference compound] | – | 0% | – |
| CC1(C)C2CCC1(CS(=O)(=O)O)C(=O)/C2=C\c1ccc(/C=C2/C(=O)C3(CS(=O)(=O)O)CCC2C3(C)C)cc1 [TP-DCS, terephthalylidene-3,3′-dicamphor-10,10′-disulfonic acid] | 65% | 63% | – |
